molecular target: human ERK-2 (Mitogen Activated Kinase 1) (Homo sapiens (Human), UniProt P28482); assay: ERK-2 Enzymatic Assay; format: biochemical; conditions: human ERK-2 enzyme 5 nM, 25 μM ATP, S/T17 peptide substrate; isomer = configuration of CR2R3
Method: Compounds were tested in an enzymatic assay using human ERK-2 (Mitogen Activated Kinase 1), recombinantly expressed as an n-terminal 6-His fusion protein in E. coli and corresponding to aa 8-360. […] Test compounds were diluted in DMSO in 3-fold serial dilutions at 100× final concentrations. […] The data collected from each well was fit to a straight line, and the resulting rates were used to calculate percent of control. Percent of control was plotted against compound concentration, and IC50 values were determined using a four-parameter fit.

Sequence of human ERK-2 (Mitogen Activated Kinase 1) (P28482 8-360): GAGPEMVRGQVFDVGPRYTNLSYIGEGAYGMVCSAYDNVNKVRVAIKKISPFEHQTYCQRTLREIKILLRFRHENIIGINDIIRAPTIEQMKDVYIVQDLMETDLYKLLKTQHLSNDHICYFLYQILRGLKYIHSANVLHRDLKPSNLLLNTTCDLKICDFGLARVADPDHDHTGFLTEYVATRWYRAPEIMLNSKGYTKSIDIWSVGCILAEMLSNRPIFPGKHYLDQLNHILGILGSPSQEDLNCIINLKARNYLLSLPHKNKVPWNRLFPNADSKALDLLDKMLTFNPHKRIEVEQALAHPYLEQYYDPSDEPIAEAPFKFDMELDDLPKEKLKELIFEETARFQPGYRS

IC50 [nM] | SMILES
< 0.02 | Cn1nccc1Nc1nccc(-c2cc3n4c(nnc4c2)[C@H](Cc2ccc(F)cc2)CCO3)n1 [(R) I-58, 4-(9-(4-fluorobenzyl)-8,9-dihydro-7H-6-oxa-1,2,2a^1-triazabenzo[cd]azulen-4-yl)-N-(1-methyl-1H-pyrazol-5-yl)pyrimidin-2-amine]
< 0.02 | COc1ccc(C[C@@H]2CC(=O)N(C)c3cc(-c4ccnc(Nc5ccnn5C)n4)cc4nnc2n34)cc1 [(R) I-62, 9-(4-methoxybenzyl)-6-methyl-4-(2-((1-methyl-1H-pyrazol-5-yl)amino)pyrimidin-4-yl)-8,9-dihydro-1,2,2a^1,6-tetraazabenzo[cd]azulen-7(6H)-one]
183 | CCC[C@@H]1CC(=O)N(C)c2cc(-c3ccnc(Nc4ccnn4C)n3)cc3nnc1n23 [(R) I-64, 6-methyl-4-(2-((1-methyl-1H-pyrazol-5-yl)amino)pyrimidin-4-yl)-9-propyl-8,9-dihydro-1,2,2a^1,6-tetraazabenzo[cd]azulen-7(6H)-one]
0.66 | CN1C(=O)C[C@H](C2CC2)c2nnc3cc(-c4ccnc(Nc5ccnn5C)n4)cc1n23 [(R) I-65, 9-cyclopropyl-6-methyl-4-(2-((1-methyl-1H-pyrazol-5-yl)amino)pyrimidin-4-yl)-8,9-dihydro-1,2,2a^1,6-tetraazabenzo[cd]azulen-7(6H)-one]
2.95 | Cn1nccc1Nc1nccc(-c2cc3n4c(nnc4c2)[C@H](Oc2ccc(F)cc2)CCO3)n1 [(R) I-66, 4-(9-(4-fluorophenoxy)-8,9-dihydro-7H-6-oxa-1,2,2a^1-triazabenzo[cd]azulen-4-yl)-N-(1-methyl-1H-pyrazol-5-yl)pyrimidin-2-amine]
0.655 | CN1C(=O)C[C@H](CC(F)(F)F)c2nnc3cc(-c4ccnc(Nc5ccnn5C)n4)cc1n23 [(R) I-71, 6-methyl-4-(2-((1-methyl-1H-pyrazol-5-yl)amino)pyrimidin-4-yl)-9-(2,2,2-trifluoroethyl)-8,9-dihydro-1,2,2a^1,6-tetraazabenzo[cd]azulen-7(6H)-one]
< 0.02 | COc1ccc(C[C@@H]2CC(=O)N(C)c3cc(-c4ccnc(Nc5ccnn5C)c4)cc4nnc2n34)c(F)c1 [(R) I-74, 9-(2-fluoro-4-methoxybenzyl)-6-methyl-4-(2-((1-methyl-1H-pyrazol-5-yl)amino)pyridin-4-yl)-8,9-dihydro-1,2,2a^1,6-tetraazabenzo[cd]azulen-7(6H)-one]
3.22 | CC(C)C[C@@H]1CC(=O)N(C)c2cc(-c3ccnc(Nc4ccnn4C)c3)cc3nnc1n23 [(R) I-75, 9-isobutyl-6-methyl-4-(2-((1-methyl-1H-pyrazol-5-yl)amino)pyridin-4-yl)-8,9-dihydro-1,2,2a^1,6-tetraazabenzo[cd]azulen-7(6H)-one]
0.311 | Cn1nccc1Nc1nccc(-c2cc3n4c(nnc4c2)[C@H](Oc2cncc(Cl)c2)CCO3)n1 [(R) I-77, 4-(9-((5-chloropyridin-3-yl)oxy)-8,9-dihydro-7H-6-oxa-1,2,2a^1-triazabenzo[cd]azulen-4-yl)-N-(1-methyl-1H-pyrazol-5-yl)pyrimidin-2-amine]
4.61 | Cn1nccc1Nc1cc(-c2cc3n4c(nnc4c2)[C@H](Oc2cncc(Cl)c2)CCO3)ccn1 [(R) I-78, 4-(9-((5-chloropyridin-3-yl)oxy)-8,9-dihydro-7H-6-oxa-1,2,2a^1-triazabenzo[cd]azulen-4-yl)-N-(1-methyl-1H-pyrazol-5-yl)pyridin-2-amine]
0.6 | Cn1nccc1Nc1nccc(-c2cc3n4c(nnc4c2)[C@@H](Cc2ccc(F)c(Cl)c2)CO3)n1 [(R) I-82, 4-(3-(3-chloro-4-fluorobenzyl)-3,4-dihydro-5-oxa-1,2,2a^1-triazaacenaphthylen-7-yl)-N-(1-methyl-1H-pyrazol-5-yl)pyrimidin-2-amine]
0.102 | CN1C(=O)C[C@@H](Cc2ccc(Cl)cn2)c2nnc3cc(-c4ccnc(Nc5ccnn5C)n4)cc1n23 [(R) I-84, 9-((5-chloropyridin-2-yl)methyl)-6-methyl-4-(2-((1-methyl-1H-pyrazol-5-yl)amino)pyrimidin-4-yl)-8,9-dihydro-1,2,2a^1,6-tetraazabenzo[cd]azulen-7(6H)-one]
< 0.02 | COc1ccc(C[C@@H]2CC(=O)N(C)c3cc(-c4ccnc(Nc5ccnn5C)n4)cc4nnc2n34)c(F)c1 [(R) I-85, 9-(2-fluoro-4-methoxybenzyl)-6-methyl-4-(2-((1-methyl-1H-pyrazol-5-yl)amino)pyrimidin-4-yl)-8,9-dihydro-1,2,2a^1,6-tetraazabenzo[cd]azulen-7(6H)-one]
6.94 | CC(C)[C@H]1CC(=O)N(C)c2cc(-c3ccnc(Nc4ccnn4C)c3)cc3nnc1n23 [(R) I-87, 9-isopropyl-6-methyl-4-(2-((1-methyl-1H-pyrazol-5-yl)amino)pyridin-4-yl)-8,9-dihydro-1,2,2a^1,6-tetraazabenzo[cd]azulen-7(6H)-one]
< 0.02 | Cn1nccc1Nc1nccc(-c2cc3n4c(nnc4c2)[C@@H](Cc2cccc(Cl)c2)CO3)n1 [(R) I-88, 4-(3-(3-chlorobenzyl)-3,4-dihydro-5-oxa-1,2,2a^1-triazaacenaphthylen-7-yl)-N-(1-methyl-1H-pyrazol-5-yl)pyrimidin-2-amine]
< 0.02 | Cn1nccc1Nc1cc(-c2cc3n4c(nnc4c2)[C@@H](Cn2cc(C(F)(F)F)cn2)CCO3)ccn1 [(R) I-89, N-(1-methyl-1H-pyrazol-5-yl)-4-(9-((4-(trifluoromethyl)-1H-pyrazol-1-yl)methyl)-8,9-dihydro-7H-6-oxa-1,2,2a^1-triazabenzo[cd]azulen-4-yl)pyridin-2-amine]
0.942 | Cn1nccc1Nc1nccc(-c2cc3n4c(nnc4c2)[C@H](Oc2ccccc2)CCO3)n1 [(R) I-90, N-(1-methyl-1H-pyrazol-5-yl)-4-(9-phenoxy-8,9-dihydro-7H-6-oxa-1,2,2a^1-triazabenzo[cd]azulen-4-yl)pyrimidin-2-amine]
25.8 | Cn1nccc1Nc1nccc(-c2cc3n4c(nnc4c2)[C@H](Oc2cncc(F)c2)CCO3)n1 [(R) I-91, 4-(9-((5-fluoropyridin-3-yl)oxy)-8,9-dihydro-7H-6-oxa-1,2,2a^1-triazabenzo[cd]azulen-4-yl)-N-(1-methyl-1H-pyrazol-5-yl)pyrimidin-2-amine]
< 0.02 | Cc1cc(C[C@H]2CCOc3cc(-c4ccnc(Nc5ccnn5C)n4)cc4nnc2n34)on1 [(R) I-93, N-(1-methyl-1H-pyrazol-5-yl)-4-(9-((3-methylisoxazol-5-yl)methyl)-8,9-dihydro-7H-6-oxa-1,2,2a^1-triazabenzo[cd]azulen-4-yl)pyrimidin-2-amine]
< 0.02 | COc1cccc(C[C@H]2COc3cc(-c4ccnc(Nc5ccnn5C)c4)cc4nnc2n34)c1 [(R) I-97, 4-(3-(3-methoxybenzyl)-3,4-dihydro-5-oxa-1,2,2a^1-triazaacenaphthylen-7-yl)-N-(1-methyl-1H-pyrazol-5-yl)pyridin-2-amine]
1.7 | Cn1nccc1Nc1nccc(-c2cc3n4c(nnc4c2)[C@H](CCC(F)(F)F)CCO3)n1 [(R) I-102, N-(1-methyl-1H-pyrazol-5-yl)-4-(9-(3,3,3-trifluoropropyl)-8,9-dihydro-7H-6-oxa-1,2,2a^1-triazabenzo[cd]azulen-4-yl)pyrimidin-2-amine]
2.77 | CCC[C@@H]1CCOc2cc(-c3ccnc(Nc4ccnn4C)c3)cc3nnc1n23 [(R) I-103, N-(1-methyl-1H-pyrazol-5-yl)-4-(9-propyl-8,9-dihydro-7H-6-oxa-1,2,2a^1-triazabenzo[cd]azulen-4-yl)pyridin-2-amine]
2.3 | CCC[C@@H]1CCOc2cc(-c3ccnc(Nc4ccnn4C)n3)cc3nnc1n23 [(R) I-104, N-(1-methyl-1H-pyrazol-5-yl)-4-(9-propyl-8,9-dihydro-7H-6-oxa-1,2,2a^1-triazabenzo[cd]azulen-4-yl)pyrimidin-2-amine]
1.85 | CC(C)C[C@@H]1CCOc2cc(-c3ccnc(Nc4ccnn4C)n3)cc3nnc1n23 [(R) I-107, 4-(9-isobutyl-8,9-dihydro-7H-6-oxa-1,2,2a^1-triazabenzo[cd]azulen-4-yl)-N-(1-methyl-1H-pyrazol-5-yl)pyrimidin-2-amine]
2.95 | Cn1nccc1Nc1nccc(-c2cc3n4c(nnc4c2)C(Oc2ccc(F)cc2)CCO3)n1 [(R) I-108, 4-(9-(4-fluorophenoxy)-8,9-dihydro-7H-6-oxa-1,2,2a^1-triazabenzo[cd]azulen-4-yl)-N-(1-methyl-1H-pyrazol-5-yl)pyrimidin-2-amine]
< 0.02 | Cc1csc(C[C@H]2CCOc3cc(-c4ccnc(Nc5ccnn5C)n4)cc4nnc2n34)n1 [(R) I-109, N-(1-methyl-1H-pyrazol-5-yl)-4-(9-((4-methylthiazol-2-yl)methyl)-8,9-dihydro-7H-6-oxa-1,2,2a^1-triazabenzo[cd]azulen-4-yl)pyrimidin-2-amine]
< 0.02 | Clc1cnn(C[C@H]2CCOc3cc(-c4ccnc(NC5CCOCC5)n4)cc4nnc2n34)c1 [(R) I-110, 4-(9-((4-chloro-1H-pyrazol-1-yl)methyl)-8,9-dihydro-7H-6-oxa-1,2,2a^1-triazabenzo[cd]azulen-4-yl)-N-(tetrahydro-2H-pyran-4-yl)pyrimidin-2-amine]
2.6 | Cn1nccc1Nc1nccc(-c2cc3n4c(nnc4c2)[C@H](Oc2ccc(F)c(F)c2)CCO3)n1 [(R) I-111, 4-(9-(3,4-difluorophenoxy)-8,9-dihydro-7H-6-oxa-1,2,2a^1-triazabenzo[cd]azulen-4-yl)-N-(1-methyl-1H-pyrazol-5-yl)pyrimidin-2-amine]
1.1 | Cn1nccc1Nc1nccc(-c2cc3n4c(nnc4c2)[C@@H](c2ccccc2)CN3)n1 [(S) I-1, N-(1-methyl-1H-pyrazol-5-yl)-4-(3-phenyl-4,5-dihydro-3H-1,2,2a^1,5-tetraazaacenaphthylen-7-yl)pyrimidin-2-amine]
0.02 | Cn1nccc1Nc1nccc(-c2cc3n4c(nnc4c2)[C@@H](Cc2ccccc2)CN3)n1 [(S) I-2, (S)-4-(3-benzyl-4,5-dihydro-3H-1,2,2a^1,5-tetraazaacenaphthylen-7-yl)-N-(1-methyl-1H-pyrazol-5-yl)pyrimidin-2-amine]

Source: patent US9867833B2, “Serine/threonine kinase inhibitors” (GENENTECH, INC., priority 2013, dated 2018)
